# Experimental data from article PMC6199744, “Development of Chemical Proteomics for the Folateome and Analysis of the Kinetoplastid Folateome” (ACS Infectious Diseases, 2018).
# Like-named read-outs stand apart in the source and are kept apart here.
# Tested on: T. brucei lysate proteins
# Format: binding, Trypanosoma brucei
# Conditions: for abundance relative to vehicle: X016405, bead mixture, free compound 100.0uM, Trypanosoma brucei
compound,measurement,setting,value
Nc1nc2cccc(-c3ccccc3)c2n1Cc1ccc(Cl)c(Cl)c1 [compound 3],abundance relative to vehicle,protein TB427.02.1850,0.84
same,abundance relative to vehicle,protein TB427.06.4760,0.94
same,abundance relative to vehicle,protein TB427.07.3620,0.78
same,abundance relative to vehicle,protein TB427.08.1880,1.20
same,fold change - vehicle control,protein RHS6A (CZT00028360.1),0.89
same,fold change - vehicle control,"protein TB09.160.1250 HY[…], CONSERVED",0.88
same,fold change - vehicle control,"protein TB09.160.3670 RIBOSOMAL PROTEIN S6, PUTATIVE",0.98
same,fold change - vehicle control,"protein TB09.211.2630 60S RIBOSOMAL PROTEIN L23, PUTATIVE",0.92
same,fold change - vehicle control,protein TB09.211.4513 KIN[…] PROTEIN KMP-11,1.1
same,fold change - vehicle control,protein TB11.V4.0005 RIBONUCLEOSIDE-DIPHOSPHATE REDUCTASE SMALL CHAIN,0.81
same,fold change - vehicle control,"protein TB11.01.0870 R[…] A, 51KDA SUBUNIT, PUTATIVE",1.11
same,fold change - vehicle control,"protein TB11.01.2560 40S RIBOSOMAL PROTEIN SA, PUTATIVE",0.92
same,fold change - vehicle control,"protein TB11.01.4880 HY[…], CONSERVED",0.9
same,fold change - vehicle control,"protein TB11.01.7090 HY[…], CONSERVED",0.87
same,fold change - vehicle control,protein TB11.02.2510 GUANINE NUCLEOTIDE-BINDING BETA SUBUNIT-LIKE PROTEIN,0.96
same,fold change - vehicle control,"protein TB11.02.4170 40S RIBOSOMAL PROTEIN S5, PUTATIVE",0.92
same,fold change - vehicle control,protein TB11.03.0250 C[…],1.22
same,fold change - vehicle control,"protein TB11.46.0009 HY[…], CONSERVED",0.89
same,fold change - vehicle control,"protein TB427TMP.01.0620 HY[…], CONSERVED",0.76
same,fold change - vehicle control,"protein TB427TMP.01.1475 40S RIBOSOMAL PROTEIN S27, PUTATIVE",1.02
same,fold change - vehicle control,"protein TB427TMP.01.4280 HY[…], CONSERVED",0.82
same,fold change - vehicle control,"protein TB427TMP.01.4650 HY[…], CONSERVED",0.97
same,fold change - vehicle control,"protein TB427TMP.01.4810 HY[…], CONSERVED",0.99
same,fold change - vehicle control,"protein TB427TMP.01.5680 HY[…], CONSERVED",0.54
same,fold change - vehicle control,"protein TB427TMP.01.8390 HY[…], CONSERVED",0.84
same,fold change - vehicle control,"protein TB427TMP.02.0230 HY[…], CONSERVED",1.04
same,fold change - vehicle control,protein TB427TMP.02.0460 NUCLEOPORIN,0.82
same,fold change - vehicle control,protein TB427TMP.02.1106 NUCLEOBASE/NUCLEOSIDE TRANSPORTER 8 1,1.05
same,fold change - vehicle control,"protein TB427TMP.160.2050 ENDO-BETA-N-ACETYLGLUCOSAMINIDASE, PUTATIVE",0.92
same,fold change - vehicle control,protein TB427TMP.160.4310 GLUTAMATE DEHYDROGENASE,0.97
same,fold change - vehicle control,"protein TB427TMP.160.4450 40S RIBOSOMAL PROTEIN S3, PUTATIVE",0.97
same,fold change - vehicle control,"protein TB427TMP.160.4630 HY[…], CONSERVED",0.86
same,fold change - vehicle control,"protein TB427TMP.160.5200 HY[…], CONSERVED",0.69
same,fold change - vehicle control,"protein TB427TMP.160.5670 HY[…], CONSERVED",0.83
same,fold change - vehicle control,protein TB427TMP.211.0930 POLYADENYLATE-BINDING PROTEIN 1,0.97
same,fold change - vehicle control,"protein TB427TMP.211.1750 MIT[…] PROTEIN, PUTATIVE",0.88
same,fold change - vehicle control,"protein TB427TMP.211.3510 ATP-DEPENDENT DEAD/H RNA HELICASE, PUTATIVE",1.06
same,fold change - vehicle control,"protein TB427TMP.211.4540 RNA-BINDING PROTEIN, PUTATIVE",1.05
same,fold change - vehicle control,"protein TB427TMP.244.2840 HY[…], CONSERVED",0.92
same,fold change - vehicle control,"protein TB427.01.1240 CYTIDINE TR[…], PUTATIVE",0.84
same,fold change - vehicle control,protein TB427.01.2570 COATOMER BETA SUBUNIT,0.73
same,fold change - vehicle control,"protein TB427.01.3910 HY[…], CONSERVED",0.78
same,fold change - vehicle control,"protein TB427.02.450 RETRO[…] SPOT (RHS) PROTEIN, PUTATIVE",0.81
same,fold change - vehicle control,protein TB427.02.6240,1.08
same,fold change - vehicle control,"protein TB427.04.3350 HY[…], CONSERVED",0.72
same,fold change - vehicle control,"protein TB427.04.3890 ATP-DEPENDENT RNA HELICASE, PUTATIVE",0.92
same,fold change - vehicle control,"protein TB427.04.4870 AMINO ACID TRANSPORTER, PUTATIVE",0.87
same,fold change - vehicle control,"protein TB427.04.750 50S RIBOSOMAL PROTEIN L7AE, PUTATIVE",1.12
same,fold change - vehicle control,"protein TB427.04.960 HY[…], CONSERVED",0.88
same,fold change - vehicle control,"protein TB427.05.1490 HY[…], CONSERVED",0.8
same,fold change - vehicle control,"protein TB427.05.1780 HY[…], CONSERVED",0.77
same,fold change - vehicle control,"protein TB427.05.3030 INTR[…] PROTEIN IFT122, PUTATIVE",0.89
same,fold change - vehicle control,"protein TB427.05.4560 GUANINE DEAMINASE, PUTATIVE",0.7
same,fold change - vehicle control,"protein TB427.06.2150 CELL DIVISION CYCLE PROTEIN 16, PUTATIVE",0.83
same,fold change - vehicle control,"protein TB427.06.3110 PROTEIN KINASE, PUTATIVE (CRK11)",0.87
same,fold change - vehicle control,"protein TB427.06.5110 DAMAGE-SPECIFIC DNA BINDING PROTEIN, PUTATIVE",0.98
same,fold change - vehicle control,"protein TB427.07.2670 HY[…], CONSERVED",3.19
same,fold change - vehicle control,"protein TB427.07.3040 HY[…], CONSERVED",0.98
same,fold change - vehicle control,"protein TB427.07.3530 HY[…], CONSERVED",0.87
same,fold change - vehicle control,"protein TB427.07.4970 GLUTAMINE SYNTHETASE, PUTATIVE",0.9
same,fold change - vehicle control,"protein TB427.07.5560 GLUCOSAMINE-FRUCTOSE-6-PHOSPHATE AMINOTRANSFERASE, PUTATIVE",0.84
same,fold change - vehicle control,"protein TB427.07.5890 HY[…], CONSERVED",0.79
same,fold change - vehicle control,"protein TB427.07.7070 HY[…], CONSERVED",0.62
same,fold change - vehicle control,"protein TB427.07.7460 HY[…], CONSERVED",0.91
same,fold change - vehicle control,"protein TB427.08.1500 HY[…], CONSERVED",0.95
same,fold change - vehicle control,"protein TB427.08.1840 HY[…], CONSERVED",0.95
same,fold change - vehicle control,"protein TB427.08.1960 HY[…], CONSERVED",0.78
same,fold change - vehicle control,"protein TB427.08.2080 HY[…], CONSERVED",1.08
same,fold change - vehicle control,"protein TB427.08.3750 NUCLEOLAR PROTEIN, PUTATIVE",0.92
same,fold change - vehicle control,"protein TB427.08.6390 LYSOPHOSPHOLIPASE, PUTATIVE",1.03
same,fold change - vehicle control,"protein TB427.10.10610 PROTEIN TYROSINE PHOSPHATASE, PUTATIVE",0.69
same,fold change - vehicle control,"protein TB427.10.1100 60S RIBOSOMAL PROTEIN L9, PUTATIVE",0.86
same,fold change - vehicle control,protein TB427.10.12740,0.9
same,fold change - vehicle control,"protein TB427.10.14660 HY[…], CONSERVED",1.05
same,fold change - vehicle control,protein TB427.10.15720 […]-ATP-ASE SUBUNIT 9,0.82
same,fold change - vehicle control,protein TB427.10.2440 METACASPASE MCA4,0.84
same,fold change - vehicle control,"protein TB427.10.2900 IMPORTIN BETA-1 SUBUNIT, PUTATIVE",0.79
same,fold change - vehicle control,"protein TB427.10.3470 HY[…], CONSERVED",0.74
same,fold change - vehicle control,protein TB427.10.4110 60S RIBOSOMAL PROTEIN L30,0.91
same,fold change - vehicle control,"protein TB427.10.4610 […]-MANNOSE SYNTHASE, PUTATIVE",0.85
same,fold change - vehicle control,"protein TB427.10.5250 HY[…], CONSERVED",0.82
same,fold change - vehicle control,"protein TB427.10.5840 T[…] 1-BETA, PUTATIVE",0.65
same,fold change - vehicle control,"protein TB427.10.7410 SUCCINYL-COA LIGASE GDP-FORMING] BETA-CHAIN, PUTATIVE",0.85
same,fold change - vehicle control,protein TB927.10.12960 RAS-RELATED PROTEIN RAB-5,0.9
same,fold change - vehicle control,"protein TB927.10.14800 PROTEIN KINASE, PUTATIVE",1.09
same,fold change - vehicle control,protein TB927.10.2980 […]-ATPASE SUBUNIT 11,1.07
same,fold change - vehicle control,protein TB927.10.3660 ASPARTATE AMINOTRANSFERASE,0.86
same,fold change - vehicle control,protein TB927.10.4570 […] 2,0.66
same,fold change - vehicle control,"protein TB927.10.5140 PROTEIN KINASE, PUTATIVE",1.06
same,fold change - vehicle control,"protein TB927.10.560 40S RIBOSOMAL PROTEINS S11, PUTATIVE",0.95
same,fold change - vehicle control,"protein TB927.10.6510 CHAPERONIN HSP60, MIT[…]",0.86
same,fold change - vehicle control,"protein TB927.3.1840 3-OXO-5-ALPHA-STEROID 4-DEHYDROGENASE, PUTATIVE",0.92
same,fold change - vehicle control,protein TB927.3.3780 TRYPAREDOXIN,0.85
same,fold change - vehicle control,"protein TB927.3.740 HY[…], CONSERVED",0.91
same,fold change - vehicle control,"protein TB927.4.2740 HY[…], CONSERVED",1.05
same,fold change - vehicle control,"protein TB927.4.3590 T[…] 1-BETA, PUTATIVE",0.69
same,fold change - vehicle control,"protein TB927.6.4320 HY[…], CONSERVED",0.75
same,fold change - vehicle control,protein TB927.7.2550 […] SUBUNIT 5,0.86
same,fold change - vehicle control,"protein TB927.7.2980 HY[…], CONSERVED",0.75
